“And” between values parts separate entries of the source, which are not always exact repeats. Equal entries are not always repeated.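 All cell lines were grown in 96-well plates and treated with compound for 48 hours. The concentration for 50% growth inhibition is given as GI50. At the TGI there is no net growth.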 A value given as a limit tells only on which side of the number the result lay.

Among the test systems are SK-MEL-28 melanoma; HOP-62 NSCLC; TK-10 renal; MALME-3M melanoma; A549 NSCLC; OVCAR-3 ovarian; UO-31 renal; KM12 colon; HL-60(TB) leukemia; SNB-19 CNS.
Assay in all cases: NCI anticancer screen, dose series, 48 h

As for `COc1ccc(OC)c2c(/C=C/c3ccc(N(C)C)cc3)ccnc12`, the TGI with SK-MEL-28 melanoma, with HOP-62 NSCLC, with TK-10 renal, in the assay on MALME-3M melanoma, in the assay with A549 NSCLC and with OVCAR-3 ovarian was over 10 µM throughout. Besides, the TGI with UO-31 renal is over 10 µM; in the assay on KM12 colon, over 10 µM; in the assay on HL-60(TB) leukemia it was 3.86 µM; in the assay on SNB-19 CNS, over 10 µM.

Take `CC1(C)O/C(=C\c2ccccc2)C(=O)/C(=C/c2ccccc2)O1`: the TGI with SK-MEL-28 melanoma, with HOP-62 NSCLC, with TK-10 renal, in the assay with MALME-3M melanoma, in the assay with A549 NSCLC and in the assay on OVCAR-3 ovarian was over 100 µM throughout. The TGI in the assay on UO-31 renal was over 100 µM; in the assay on KM12 colon, over 100 µM; with HL-60(TB) leukemia, 29.4 µM; in the assay on SNB-19 CNS it was over 100 µM.

With `CC(C)CNC(=O)O`, the TGI in the assay on SK-MEL-28 melanoma, in the assay on HOP-62 NSCLC, in the assay on TK-10 renal, in the assay with MALME-3M melanoma, in the assay with A549 NSCLC and with OVCAR-3 ovarian was over 100 µM in each case. Moreover, the TGI in the assay with UO-31 renal, with KM12 colon, in the assay with HL-60(TB) leukemia and with SNB-19 CNS was over 100 µM throughout.

With `COc1ccc2c(c1)[C@@]13CCCC[C@H]1[C@@H](C2)N(C)CC3=O`, the TGI was 30 µM in the assay with SK-MEL-28 melanoma; over 100 µM in the assay with HOP-62 NSCLC; 40.7 µM in the assay with TK-10 renal; 33.1 µM with MALME-3M melanoma; 41 µM in the assay on A549 NSCLC; 32.9 µM in the assay with OVCAR-3 ovarian. Further, the TGI was 32.9 µM with UO-31 renal, 33.6 µM in the assay with KM12 colon, over 100 µM in the assay on HL-60(TB) leukemia and over 100 µM in the assay with SNB-19 CNS.

With `CC(C)CCCC(C)[C@H]1CCC2[C@H]3C(CC[C@@]21C)[C@@]1(C)CCC=C[C@]12C[C@@H]2[C@@H]3O` (stereo not given in full), the TGI in the assay with SK-MEL-28 melanoma, in the assay with HOP-62 NSCLC, in the assay with TK-10 renal, with MALME-3M melanoma, with A549 NSCLC and with OVCAR-3 ovarian was over 100 µM throughout. Besides, the TGI with UO-31 renal, in the assay with KM12 colon, with HL-60(TB) leukemia and with SNB-19 CNS was over 100 µM throughout.

Turning to `N#CC(=NCCO)C1=C(O)c2ccccc2C1=O`, the TGI in the assay with SK-MEL-28 melanoma, in the assay with HOP-62 NSCLC, with TK-10 renal, in the assay with MALME-3M melanoma, in the assay on A549 NSCLC and in the assay on OVCAR-3 ovarian was over 100 µM in each case. For the same molecule, the TGI in the assay on UO-31 renal, with KM12 colon, in the assay on HL-60(TB) leukemia and in the assay with SNB-19 CNS was over 100 µM in each case.

For `COc1cc2c(c(OC)n1)[C@]1(O)[C@H](O)[C@H](CN(C)C)[C@@H](c3ccccc3)[C@]1(c1ccc(C#N)cc1)O2`, the GI50 in the assay on SK-MEL-28 melanoma was 33.4 nM and 31.3 nM; in the assay on HOP-62 NSCLC, < 15.1 nM and 10.2 nM; in the assay on TK-10 renal it was 54.3 nM and 67.2 nM; in the assay on MALME-3M melanoma, 19.4 nM and 19 nM; in the assay on A549 NSCLC, under 10 nM; with OVCAR-3 ovarian, 33.4 nM and 14.6 nM. The GI50 was 22.4 nM and 19.7 nM in the assay with UO-31 renal; 12.8 nM and < 10 nM with KM12 colon; under 10 nM in the assay on HL-60(TB) leukemia; 11.1 nM and 10.4 nM with SNB-19 CNS. In addition, the TGI in the assay on SK-MEL-28 melanoma was 0.813 µM and 1.56 µM; in the assay with HOP-62 NSCLC it was 3.52 µM and 0.565 µM; with TK-10 renal it was 2.9 µM and 6.22 µM; in the assay with MALME-3M melanoma, 0.7 µM and 0.841 µM; in the assay on A549 NSCLC it was 8.42 µM and 8.64 µM; in the assay on OVCAR-3 ovarian, 2.78 µM and 1.87 µM. For the same molecule, the TGI is 0.479 µM and 0.319 µM in the assay with UO-31 renal; 3.61 µM and 7.59 µM in the assay with KM12 colon; 0.921 µM and 0.213 µM in the assay with HL-60(TB) leukemia; 3.8 µM and 4.21 µM in the assay on SNB-19 CNS.

Source of the values: PubChem BioAssay (NCI).
